Assay results as given in patent US20090035353A1 (priority 2001, published 2009).

What was measured:
Format in all cases: cell-based, Staphylococcus aureus
[1] = tested on: production of TSST-1 by S. aureus (MN8)
[2] = tested on: TSST-1 production by S. aureus FRI-1169
[3] = tested on: TSST-1 production by S. aureus FRI-1187

| Compound | ELISA: TSST-1 ng/OD unit [1] | TSST-1 produced when compared to the control [1] | ELISA: TSST-1 ng/OD unit [2] | TSST-1 produced when compared to the control [2] | ELISA: TSST-1 ng/OD unit [3] | TSST-1 produced when compared to the control [3] |
| --- | --- | --- | --- | --- | --- | --- |
| Oc1c(Cl)cc(Cl)c(Cl)c1Cc1c(O)c(Cl)cc(Cl)c1Cl [Hexachlorophene, hexachlorophene] | 330 | significantly less TSST-1 |  |  |  |  |
| 4-hydroxydiphenyl methane [4-Hydroxydiphenyl-methane] | 785 |  |  |  |  |  |
| Oc1cc(Cl)ccc1Oc1ccc(Cl)cc1Cl [Triclosan, triclosan] | 129 | significantly less TSST-1 | 40 | less TSST-1 | 95 | less TSST-1 |
